This note sets out measurements from ChEMBL document CHEMBL5465560, “Selectivity Literature for EUbOPEN Chemogenomic Library” (2024).

Assay [1] addresses T1, Serine/threonine-protein kinase TAO2 (Homo sapiens) (UniProt Q9UL54).
T1 sequence (whole entry): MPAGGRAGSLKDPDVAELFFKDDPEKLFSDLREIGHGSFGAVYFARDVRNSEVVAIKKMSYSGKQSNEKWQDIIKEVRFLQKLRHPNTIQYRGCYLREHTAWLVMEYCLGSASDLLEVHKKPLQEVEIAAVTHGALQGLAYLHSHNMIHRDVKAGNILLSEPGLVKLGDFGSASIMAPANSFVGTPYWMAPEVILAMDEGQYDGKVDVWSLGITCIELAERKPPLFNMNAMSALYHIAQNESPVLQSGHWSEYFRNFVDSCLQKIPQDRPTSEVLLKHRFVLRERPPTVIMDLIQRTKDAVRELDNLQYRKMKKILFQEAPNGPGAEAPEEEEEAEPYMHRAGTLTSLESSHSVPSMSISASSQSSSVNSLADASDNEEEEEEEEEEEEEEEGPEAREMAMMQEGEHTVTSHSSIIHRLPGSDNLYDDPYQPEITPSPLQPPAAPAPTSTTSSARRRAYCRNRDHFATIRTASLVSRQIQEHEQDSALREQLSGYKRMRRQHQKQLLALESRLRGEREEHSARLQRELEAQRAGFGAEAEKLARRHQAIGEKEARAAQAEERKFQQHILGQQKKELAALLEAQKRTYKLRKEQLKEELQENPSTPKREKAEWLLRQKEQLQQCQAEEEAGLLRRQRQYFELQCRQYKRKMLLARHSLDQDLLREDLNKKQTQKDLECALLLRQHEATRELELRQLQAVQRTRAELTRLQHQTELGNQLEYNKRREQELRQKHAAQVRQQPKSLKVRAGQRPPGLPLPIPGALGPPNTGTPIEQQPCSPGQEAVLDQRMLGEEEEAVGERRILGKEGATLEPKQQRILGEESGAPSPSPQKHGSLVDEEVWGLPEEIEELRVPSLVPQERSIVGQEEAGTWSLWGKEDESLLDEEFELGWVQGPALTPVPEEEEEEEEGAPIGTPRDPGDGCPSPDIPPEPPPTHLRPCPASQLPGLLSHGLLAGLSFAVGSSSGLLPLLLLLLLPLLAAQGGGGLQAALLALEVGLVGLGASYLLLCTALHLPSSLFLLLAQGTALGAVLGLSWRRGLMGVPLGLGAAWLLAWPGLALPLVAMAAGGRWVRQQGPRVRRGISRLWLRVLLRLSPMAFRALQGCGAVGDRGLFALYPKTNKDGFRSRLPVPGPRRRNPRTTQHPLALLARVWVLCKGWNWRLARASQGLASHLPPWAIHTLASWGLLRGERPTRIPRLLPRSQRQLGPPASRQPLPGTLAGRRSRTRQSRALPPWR
The experiment in a line: Selectivity interaction (KinomeScan (DiscoverX)) EUB0001049a TAOK2. As to conditions: at 1 µM.

For assay [2], the target named is Serine/threonine-protein kinase PLK2 (Homo sapiens, UniProt Q9NYY3). The experiment in a line: Selectivity interaction (KinomeScan (DiscoverX)) EUB0000045b PLK2.
Sequence of Serine/threonine-protein kinase PLK2 (Q9NYY3 whole entry, looked up): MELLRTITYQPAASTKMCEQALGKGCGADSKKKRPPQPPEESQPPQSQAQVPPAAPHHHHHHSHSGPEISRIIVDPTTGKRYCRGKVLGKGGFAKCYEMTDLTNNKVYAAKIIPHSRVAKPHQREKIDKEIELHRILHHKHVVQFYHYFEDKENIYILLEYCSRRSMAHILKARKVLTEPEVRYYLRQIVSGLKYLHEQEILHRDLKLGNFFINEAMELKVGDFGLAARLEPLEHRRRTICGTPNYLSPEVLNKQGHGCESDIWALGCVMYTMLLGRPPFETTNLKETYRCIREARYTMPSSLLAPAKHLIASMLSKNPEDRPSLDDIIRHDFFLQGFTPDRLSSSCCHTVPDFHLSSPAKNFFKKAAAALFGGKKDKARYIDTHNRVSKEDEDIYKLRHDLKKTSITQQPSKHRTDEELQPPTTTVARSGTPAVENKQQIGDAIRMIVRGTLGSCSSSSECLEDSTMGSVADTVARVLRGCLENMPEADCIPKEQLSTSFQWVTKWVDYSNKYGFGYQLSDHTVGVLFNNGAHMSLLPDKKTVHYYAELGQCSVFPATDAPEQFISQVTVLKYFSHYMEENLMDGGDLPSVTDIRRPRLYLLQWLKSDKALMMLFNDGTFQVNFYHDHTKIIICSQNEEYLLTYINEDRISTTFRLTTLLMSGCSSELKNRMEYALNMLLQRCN
Assay [3] addresses Serine/threonine-protein kinase 32A (Homo sapiens) (UniProt Q8WU08). The experiment in a line: Selectivity interaction (KinomeScan (DiscoverX)) EUB0000666a STK32A. Conditions: at 10 µM.
Assay [4] concerns the target Rho-associated protein kinase 1 (Homo sapiens) (UniProt Q13464). The assay can be described thus: Selectivity interaction (ActivX KiNativ screen (kinase selectivity in THP-1 cell lysates)) EUB0000639a ROCK1. The assay is classed as subcellular. As to conditions: lysate.
The subject of assay [5] is Epidermal growth factor receptor (Homo sapiens), P00533 [UNDEFINED MUTATION]. The experiment in a line: Selectivity interaction (KinomeScan (DiscoverX)) EUB0000229b EGFR. As to conditions: at 1 µM.
Assay [6] has as its target T2, Serine/threonine-protein kinase D2 (Homo sapiens) (UniProt Q9BZL6).
T2 sequence (whole entry): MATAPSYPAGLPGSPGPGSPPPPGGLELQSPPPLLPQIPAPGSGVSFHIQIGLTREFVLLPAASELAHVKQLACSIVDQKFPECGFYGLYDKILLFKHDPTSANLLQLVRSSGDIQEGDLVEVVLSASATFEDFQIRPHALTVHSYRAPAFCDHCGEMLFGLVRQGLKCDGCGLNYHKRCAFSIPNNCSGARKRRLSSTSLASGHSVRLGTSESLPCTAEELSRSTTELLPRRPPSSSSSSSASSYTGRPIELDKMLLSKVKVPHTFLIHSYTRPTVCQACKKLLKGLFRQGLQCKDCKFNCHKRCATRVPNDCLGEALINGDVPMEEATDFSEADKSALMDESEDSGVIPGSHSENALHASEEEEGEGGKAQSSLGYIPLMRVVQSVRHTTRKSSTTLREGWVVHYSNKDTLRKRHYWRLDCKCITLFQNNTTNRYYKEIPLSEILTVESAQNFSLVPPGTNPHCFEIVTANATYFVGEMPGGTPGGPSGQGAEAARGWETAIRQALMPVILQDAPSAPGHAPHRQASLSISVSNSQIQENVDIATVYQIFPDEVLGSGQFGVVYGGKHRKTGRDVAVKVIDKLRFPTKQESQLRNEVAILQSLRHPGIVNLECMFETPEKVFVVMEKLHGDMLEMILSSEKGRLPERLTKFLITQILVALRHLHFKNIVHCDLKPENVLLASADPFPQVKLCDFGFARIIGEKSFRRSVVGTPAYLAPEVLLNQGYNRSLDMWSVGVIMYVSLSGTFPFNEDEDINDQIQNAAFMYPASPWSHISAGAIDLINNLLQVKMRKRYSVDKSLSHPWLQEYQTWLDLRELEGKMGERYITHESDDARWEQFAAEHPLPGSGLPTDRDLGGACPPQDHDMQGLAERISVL
The assay can be described thus: Selectivity interaction (ActivX KiNativ screen (ex vivo kinase selectivity in human PBMCs)) EUB0001619a PRKD2. Conditions: PBMC, at 1 µM. The assay is classed as cell-based.

Assay [7] in a line: Selectivity interaction (KinomeScan (DiscoverX)) EUB0000618a PKNB. As to conditions: at 10 µM.

Sequence of Rho-associated protein kinase 1 (Homo sapiens) (Q13464 2-1354 limits assumed): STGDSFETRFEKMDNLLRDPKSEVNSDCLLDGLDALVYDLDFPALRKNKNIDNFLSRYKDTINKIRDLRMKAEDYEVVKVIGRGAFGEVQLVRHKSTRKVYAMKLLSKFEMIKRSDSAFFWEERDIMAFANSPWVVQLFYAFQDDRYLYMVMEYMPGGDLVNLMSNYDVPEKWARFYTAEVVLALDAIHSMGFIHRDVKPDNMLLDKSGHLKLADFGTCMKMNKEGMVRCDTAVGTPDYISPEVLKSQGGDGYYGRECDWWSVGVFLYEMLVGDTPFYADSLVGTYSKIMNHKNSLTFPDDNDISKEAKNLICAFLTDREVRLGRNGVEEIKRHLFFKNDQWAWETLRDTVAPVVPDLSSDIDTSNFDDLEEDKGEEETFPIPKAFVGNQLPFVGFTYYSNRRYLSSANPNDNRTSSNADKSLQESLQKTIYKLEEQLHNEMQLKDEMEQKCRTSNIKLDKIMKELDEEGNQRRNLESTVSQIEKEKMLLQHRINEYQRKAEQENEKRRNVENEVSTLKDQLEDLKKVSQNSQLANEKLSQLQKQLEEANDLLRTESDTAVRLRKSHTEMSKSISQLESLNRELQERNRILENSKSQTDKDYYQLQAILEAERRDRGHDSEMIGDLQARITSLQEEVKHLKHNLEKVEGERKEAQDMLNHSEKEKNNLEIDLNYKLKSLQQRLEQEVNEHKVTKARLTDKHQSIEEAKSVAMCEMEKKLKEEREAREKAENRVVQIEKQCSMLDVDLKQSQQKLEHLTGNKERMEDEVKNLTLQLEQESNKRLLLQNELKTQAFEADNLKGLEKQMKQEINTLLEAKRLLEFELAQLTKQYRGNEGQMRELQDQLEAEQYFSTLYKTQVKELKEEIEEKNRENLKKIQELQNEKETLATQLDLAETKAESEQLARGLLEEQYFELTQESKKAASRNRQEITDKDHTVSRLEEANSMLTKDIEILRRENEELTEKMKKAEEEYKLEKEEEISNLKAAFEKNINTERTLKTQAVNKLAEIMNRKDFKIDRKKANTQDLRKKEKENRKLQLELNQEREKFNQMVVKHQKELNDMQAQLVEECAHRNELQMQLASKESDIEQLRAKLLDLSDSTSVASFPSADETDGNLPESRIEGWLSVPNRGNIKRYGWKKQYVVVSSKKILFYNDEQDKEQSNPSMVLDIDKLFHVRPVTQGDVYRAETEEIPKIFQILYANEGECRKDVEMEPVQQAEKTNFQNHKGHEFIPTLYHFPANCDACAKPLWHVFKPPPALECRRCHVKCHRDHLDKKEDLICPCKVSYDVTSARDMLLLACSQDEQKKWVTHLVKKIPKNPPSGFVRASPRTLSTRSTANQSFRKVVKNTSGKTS
Sequence of Epidermal growth factor receptor (Homo sapiens), P00533 [UNDEFINED MUTATION] (P00533 whole entry, looked up, change not shown): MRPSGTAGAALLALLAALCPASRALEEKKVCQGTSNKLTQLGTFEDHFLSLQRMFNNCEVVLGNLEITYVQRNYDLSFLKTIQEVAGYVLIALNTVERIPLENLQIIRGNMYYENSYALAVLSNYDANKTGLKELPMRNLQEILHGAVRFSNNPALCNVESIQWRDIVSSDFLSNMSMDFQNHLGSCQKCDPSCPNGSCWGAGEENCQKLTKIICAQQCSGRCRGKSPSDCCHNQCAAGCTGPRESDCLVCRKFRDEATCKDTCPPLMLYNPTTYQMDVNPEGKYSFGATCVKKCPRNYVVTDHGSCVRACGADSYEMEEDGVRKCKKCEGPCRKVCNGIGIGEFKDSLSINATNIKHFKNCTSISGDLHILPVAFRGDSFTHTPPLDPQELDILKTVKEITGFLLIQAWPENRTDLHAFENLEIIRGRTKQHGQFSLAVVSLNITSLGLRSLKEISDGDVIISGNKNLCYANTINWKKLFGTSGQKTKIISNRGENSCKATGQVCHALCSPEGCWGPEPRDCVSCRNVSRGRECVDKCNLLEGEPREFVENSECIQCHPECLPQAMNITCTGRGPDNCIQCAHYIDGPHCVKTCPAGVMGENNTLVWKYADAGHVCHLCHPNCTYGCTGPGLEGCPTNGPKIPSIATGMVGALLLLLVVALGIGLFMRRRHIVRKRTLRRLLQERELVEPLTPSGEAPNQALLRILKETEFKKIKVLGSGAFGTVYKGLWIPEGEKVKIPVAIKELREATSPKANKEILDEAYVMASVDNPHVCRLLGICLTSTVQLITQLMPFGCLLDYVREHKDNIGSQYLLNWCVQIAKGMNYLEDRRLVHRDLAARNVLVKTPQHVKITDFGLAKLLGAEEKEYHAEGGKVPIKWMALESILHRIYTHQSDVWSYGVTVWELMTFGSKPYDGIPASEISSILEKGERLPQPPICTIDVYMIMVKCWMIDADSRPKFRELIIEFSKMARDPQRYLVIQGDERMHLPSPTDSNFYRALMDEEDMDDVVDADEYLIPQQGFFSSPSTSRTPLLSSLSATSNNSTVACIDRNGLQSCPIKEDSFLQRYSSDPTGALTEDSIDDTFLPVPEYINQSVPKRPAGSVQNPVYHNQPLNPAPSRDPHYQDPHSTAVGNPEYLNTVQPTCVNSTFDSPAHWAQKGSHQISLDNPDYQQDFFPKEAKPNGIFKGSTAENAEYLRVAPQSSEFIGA
Sequence of Serine/threonine-protein kinase 32A (Homo sapiens) (Q8WU08 whole entry): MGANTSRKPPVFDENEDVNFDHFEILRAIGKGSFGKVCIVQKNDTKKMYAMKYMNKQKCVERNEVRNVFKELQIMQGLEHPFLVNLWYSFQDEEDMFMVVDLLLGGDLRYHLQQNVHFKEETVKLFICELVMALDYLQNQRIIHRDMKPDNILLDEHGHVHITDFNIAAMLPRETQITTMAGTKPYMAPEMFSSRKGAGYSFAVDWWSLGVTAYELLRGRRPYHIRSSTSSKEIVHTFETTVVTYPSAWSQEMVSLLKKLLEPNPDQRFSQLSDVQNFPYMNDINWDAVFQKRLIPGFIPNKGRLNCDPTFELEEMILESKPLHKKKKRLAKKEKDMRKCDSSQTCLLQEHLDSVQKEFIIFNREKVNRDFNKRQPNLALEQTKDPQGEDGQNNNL

On to `COc1cc(Nc2nc(C)cc(-c3cnn4nc(OC)ccc34)n2)cc(C(F)(F)F)c1`, for which the % of control in assay [1] amounted to 77%.
In the case of `C=CC(=O)Nc1cc(-n2c(=O)ccc3cnc4ccc(-c5ccc(NS(C)(=O)=O)cc5)cc4c32)ccc1C`, the % of control in assay [2] (at 1 µM) was 72%; in assay [2] (at 10 µM) it was 86%.
In turn, `O=C(NOC[C@H](O)CO)c1ccc(F)c(F)c1Nc1ccc(I)cc1F` came in with a % of control in assay [3] of 80%.
As to `CC[C@@H]1[C@H](F)C(=O)N[C@@H]1COc1nccc2cc(C(N)=O)c(OC)cc12` [ZIMLOVISERTIB], the % of inhibition was 12.6% in assay [4] (at 0.01 µM); -4.3% in assay [4] (at 0.04 µM); -10.6% in assay [4] (at 0.2 µM); 18.3% in assay [4] (at 1 µM); 53.9% in assay [4] (at 5 µM).
For the molecule `COc1cc(N(C)c2ccnc3ccc(C(F)(F)F)cc23)cc(OC)c1OC`, the % binding in assay [5] was 92%.
As for `N#Cc1cccc(-c2c[nH]c3ncnc(N4CCOCC4)c23)c1`, in assay [6], the % of inhibition is -2%.
Turning to `O[C@H]1CC[C@H](Nc2ncc3nc(Nc4c(F)cc(F)cc4F)n([C@H]4CCOC4)c3n2)CC1`, the % of control in assay [7] is 92%.
